Laboratory results from the NIST ThermoML archive (doi:10.1016/j.tca.2014.09.022).
± gives the expanded uncertainty stated by the source.

Tests used:
[1] = DTA
[2] = Molar enthalpy of transition or fusion; conditions: DSC

| Structure (SMILES) | Triple point temperature ([1]; Crystal) [K] | Molar enthalpy of transition or fusion ([2]; Crystal) [kcal/mol] | Triple point temperature ([1]; Crystal 1) [K] | Triple point temperature ([1]; Crystal 2) [K] | Molar enthalpy of transition or fusion ([2]; Crystal 1) [kcal/mol] | Molar enthalpy of transition or fusion ([2]; Crystal 2) [kcal/mol] |
| --- | --- | --- | --- | --- | --- | --- |
| Oc1ccc(O)cc1 [1,4-benzenediol] | 445.65 ± 2.5 | 5.68 ± 0.311 | – | – | – | – |
| O=C(O)CCCC(=O)O [1,5-pentanedioic acid] | 369.65 ± 2.5 | 5.02 ± 0.287 | – | – | – | – |
| O=C(O)CCCCCCCCC(=O)O [1,10-decanedioic acid] | 405.65 ± 2.5 | 10.7 ± 0.574 | – | – | – | – |
| OCCCCCCCCCCO [1,10-decanediol] | 344.65 ± 2.5 | 10.7 ± 0.574 | – | – | – | – |
| OC[C@@H](O)[C@@H](O)CO [meso-1,2,3,4-butanetetrol] | 390.15 ± 3 | 9.54 ± 0.502 | – | – | – | – |

Results, then the compound that gave them:

| Triple point temperature ([1]; Crystal) [K] | Molar enthalpy of transition or fusion ([2]; Crystal) [kcal/mol] | Triple point temperature ([1]; Crystal 1) [K] | Triple point temperature ([1]; Crystal 2) [K] | Molar enthalpy of transition or fusion ([2]; Crystal 1) [kcal/mol] | Molar enthalpy of transition or fusion ([2]; Crystal 2) [kcal/mol] | Structure (SMILES) |
| --- | --- | --- | --- | --- | --- | --- |
| 368.15 ± 5 | 3.05 ± 0.177 | – | – | – | – | CNC(N)=O [methylurea] |
| – | – | 335.65 ± 2.5 | 330.65 ± 2.5 | 15.3 ± 0.86 | 8.49 ± 0.478 | CCCCCCCCCCCCCCCCCCCCCCCCCCCC [octacosane] |
